We go through 2 compounds from article PMC3711119 (European journal of medicinal chemistry, 2013).

The structures appear in SMILES notation.

The test system of the test is human neutrophils. The experiment in a line: Ca2+ mobilization. The settings on record: Neutrophil, read-out: Ca2+ flux Efficacy. In kind it is cell-based. For orientation: Calcium flux is commonly read through the fluorescence of an indicator in the cells.

On to `Cc1cc(N)c(=O)n(CC(=O)Nc2ccc(Br)cc2)n1` [Compound 27, N-(4-Bromophenyl)-2-[5-amino-3-methyl-6-oxopyridazin-1(6H)-yl]acetamide], for which the Emax was 100%.
The result for `COc1cccc(Cc2ccnn(CC(=O)Nc3ccc(Br)cc3)c2=O)c1` [Compound 6a, N-(4-Bromophenyl)-2-[5-(3-methoxybenzyl)-6-oxopyridazin-1(6H)-yl]acetamide] reads 100%.
